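These data come from cells grown in 96-well plates and exposed to compound for 48 hours at five concentrations. GI50: concentration for 50% inhibition of growth. The concentration for full growth arrest is given as TGI.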
Experiments:
Test in all cases: NCI-60 cell line screen, 48 h
HCT-116 colon = tested on: HCT-116 colon
KM12 colon = tested on: KM12 colon
NCI-H522 lung = tested on: NCI-H522 lung
OVCAR-3 ovarian = tested on: OVCAR-3 ovarian
OVCAR-4 ovarian = tested on: OVCAR-4 ovarian
SF-539 CNS = tested on: SF-539 CNS
SK-MEL-5 melanoma = tested on: SK-MEL-5 melanoma
U251 CNS = tested on: U251 CNS
UACC-257 melanoma = tested on: UACC-257 melanoma
HOP-92 NSCLC = tested on: HOP-92 NSCLC

| SMILES | GI50 (HCT-116 colon) | TGI (HCT-116 colon) | GI50 (KM12 colon) | TGI (KM12 colon) | GI50 (NCI-H522 lung) | TGI (NCI-H522 lung) | GI50 (OVCAR-3 ovarian) | TGI (OVCAR-3 ovarian) | GI50 (OVCAR-4 ovarian) | TGI (OVCAR-4 ovarian) | GI50 (SF-539 CNS) | TGI (SF-539 CNS) | GI50 (SK-MEL-5 melanoma) | TGI (SK-MEL-5 melanoma) | GI50 (U251 CNS) | TGI (U251 CNS) | GI50 (UACC-257 melanoma) | TGI (UACC-257 melanoma) | GI50 (HOP-92 NSCLC) | TGI (HOP-92 NSCLC) |
| --- | --- | --- | --- | --- | --- | --- | --- | --- | --- | --- | --- | --- | --- | --- | --- | --- | --- | --- | --- | --- |
| C[n+]1ccc(-c2c3nc(c(-c4cc[n+](C)cc4)c4ccc([n-]4)c(-c4cc[n+](C)cc4)c4nc(c(-c5cc[n+](C)cc5)c5ccc2[n-]5)C=C4)C=C3)cc1.[I-].[Zn+2] | 50.5 µM | > 100 µM | 23.3 µM | 69.5 µM | 1.61 µM | 9.88 µM | 7.02 µM | 28.1 µM | 2.43 µM | 10.4 µM | 16.2 µM | 39.9 µM | 15.9 µM | 37.4 µM | 22 µM | 52.8 µM | 9.61 µM | 30.1 µM | – | – |
| COc1ccc(CNc2nc3cc(N)cc(N)c3nc2-c2ccccc2)cc1 | 14.4 µM | 27.5 µM | 13.3 µM | 26.1 µM | 10 µM | 22 µM | 2.23 µM | 7.77 µM | 8.12 µM | 21.3 µM | – | – | 17.6 µM | 31.4 µM | 13.6 µM | 26.5 µM | 16.3 µM | 30.4 µM | 13 µM | 37.2 µM |
| CCOc1ccccc1NC(=O)CCc1n[nH]c(=S)o1 | – | > 100 µM | – | > 100 µM | – | > 100 µM | – | > 100 µM | – | – | – | > 100 µM | – | > 100 µM | – | > 100 µM | – | > 100 µM | – | > 100 µM |
| COc1cc(OC)c(NC(=O)c2cc3ccccc3cc2O)cc1Cl | 2.91 µM | 10.1 µM | 3.07 µM | 11.4 µM | 2.56 µM | 6.12 µM | 2.02 µM | 4.74 µM | 3 µM | > 100 µM | 3.04 µM | 12.9 µM | 2.4 µM | 6.34 µM | 3.22 µM | 10.5 µM | – | – | 1.55 µM | 4.89 µM |
